Test results taken from patent publication US20110104081A1, “Oral Compositions for Treatment of Dry Mouth” (priority 2009, published 2011).

Assay: Water gain (moisture uptake) of treated cotton swatches
Format: physicochemical
Settings: dried
Description: For table 2, the test method is as follows: For “no rinse”: 1×1 cm cotton swatches (triplicates) are placed into a weigh boat where each is labeled according to treatment type and number. Initial weights are recorded for each sample. 500 uL of polymer solution is applied to each cotton swatch sample then reweighed as wet weight. Samples are allowed to dry overnight at room temperature conditions. Sample weights are recorded in the following morning as “no rinse”. Samples are then placed on a tray in the incubator at 37° C., 3.3% CO2, and approximately 90% humidity (the metal tray at the bottom of the incubator has plenty of distilled water in the pan to ensure constant humidity). Opening and closing the incubator door frequently causes parameters to shift so minimizing this will ensure proper control over parameter. Samples are incubated for 8 hours then reweighed. The weights represent the moisture uptake ability for the treated samples. For “with rinse”: Following the weighing, samples are rinsed for 5 seconds in 500 g of vortexing water, and placed into respective weigh boat. Samples are dried overnight at room temperature conditions. Samples are weighed and placed in the incubator the following morning similar to above described procedure and weights are recorded as “with rinse”.

OCC(O)CO [40% glycerin, glycerin]
Water gain (No Rinse, incubated 8 hours at 37° C., approximately 90% humidity): 393.3 mg | Water gain (With Rinse, rinsed with water, incubated): 126.9 mg
